Experimental data: ChEMBL document CHEMBL5252584, “Design, synthesis and anti-Chikungunya virus activity of lomerizine derivatives” (Bioorg Med Chem Lett, 2023)

Tests used:
Chikungunya virus [1] = test: Antiviral activity against CHIKV infected in human Huh-7 cells assessed as inhibition of viral growth at 5 uM incubated for 12 hrs relative to control; format: functional
Huh-7 = test: Cytotoxicity against human Huh-7 cells assessed as reduction in cell viability at 5 uM by CCK8 assay relative to control; format: toxicity, cell-based; details: huh-7, 5 µM
Chikungunya virus [2] = test: Antiviral activity against CHIKV infected in human Huh-7 cells assessed as inhibition of viral growth at 10 uM incubated for 12 hrs relative to control; format: functional; design: scale not given: the % may be the effect or the level left
Chikungunya virus [3] = test: Antiviral activity against CHIKV infected in human Huh-7 cells assessed as inhibition of viral growth at 2.5 uM incubated for 12 hrs relative to control; format: functional
[4] = Cytotoxicity against human Huh-7 cells assessed as reduction in cell viability by CCK8 assay relative to control; format: toxicity, cell-based
[5] = Selectivity index, ratio of CC50 for cytotoxicity against human Huh-7 cells to IC50 for antiviral activity against CHIKV infected in human Huh-7 cells; format: toxicity, cell-based; details: read-out: Ratio CC50/IC50
Chikungunya virus [6] = test: Antiviral activity against CHIKV infected in human Huh-7 cells assessed as inhibition of viral growth incubated for 12 hrs; format: functional, organism-based; details: Huh-7, 12 h

Row | Compound | inhibition at 5 µM (Chikungunya virus [1]) [%] | cell viability (Huh-7) [%] | Activity (Chikungunya virus [2]) [%] | inhibition at 2.5 µM (Chikungunya virus [3]) [%] | CC50 [4] [µM] | selectivity ratio [5] | IC50 (Chikungunya virus [6]) [µM]
1 | O=C(/C=C/c1ccc(O)c(O)c1)N1CCN(C(c2ccccc2)c2ccc(Cl)cc2)CC1 (stereo not given) | 34.7 | > 80 | 74.4 | 20.2 |  |  | 
2 | O=C(/C=C/c1ccc(O)c(O)c1)N1CCN(C(c2ccc(F)cc2)c2ccc(F)cc2)CC1 | 43.9 | > 80 | 96.3 | 20.1 |  |  | 
3 | O=C(/C=C/c1ccccc1F)N1CCN(C(c2ccc(F)cc2)c2ccc(F)cc2)CC1 | 92.8 | > 80 | 95.8 | 74.2 | 31.7 | 51.9 | 0.61
4 | O=C(/C=C/c1ccc(F)cc1)N1CCN(C(c2ccc(F)cc2)c2ccc(F)cc2)CC1 | 19.6 | > 80 | 55.2 | 9.7 |  |  | 
5 | O=C(/C=C/c1ccccc1F)N1CCN(C(c2ccccc2)c2ccccc2)CC1 | 62.1 | > 80 | 77.6 | 17.9 | 34.2 | 7.6 | 4.5
6 | O=C(/C=C/c1cccc(F)c1)N1CCN(C(c2ccc(F)cc2)c2ccc(F)cc2)CC1 | 78.9 | > 80 | 85.8 | 59.6 | 22.9 | 11.1 | 2.06
7 | Cc1ccc(/C=C/C(=O)N2CCN(C(c3ccccc3)c3ccc(Cl)cc3)CC2)cc1 (stereo not given) | 29.7 | > 80 | 56.3 | 13.4 |  |  | 
8 | Cc1ccc(/C=C/C(=O)N2CCN(C(c3ccc(F)cc3)c3ccc(F)cc3)CC2)cc1 | 32.8 | > 80 | 84.3 | 21.3 |  |  | 
9 | O=C(/C=C/c1ccc2c(c1)OCO2)N1CCN(C(c2ccccc2)c2ccc(Cl)cc2)CC1 (stereo not given) | 52.3 | > 80 | 86.5 | 13.2 | 31.4 | 6.5 | 4.83
10 | O=C(/C=C/c1ccc2c(c1)OCO2)N1CCN(C(c2ccc(F)cc2)c2ccc(F)cc2)CC1 | 93.1 | > 80 | 97.4 | 86.9 | 29.7 | 66 | 0.45
11 | O=C(/C=C/c1cccnc1)N1CCN(C(c2ccc(F)cc2)c2ccc(F)cc2)CC1 | 54.4 | > 80 | 76.5 | 53.8 | 20.9 | 13 | 1.61
12 | O=C(/C=C/c1ccncc1)N1CCN(C(c2ccc(F)cc2)c2ccc(F)cc2)CC1 | 90.7 | > 80 | 95.3 | 58.1 | 31.3 | 13.3 | 2.35
13 | O=c1cc(-c2ccccc2)oc2cc(O)c(O)c(O)c12 [BAICALEIN] |  |  |  |  | > 100 | > 6 | 16.9
14 | COc1ccc(CN2CCN(C(c3ccc(F)cc3)c3ccc(F)cc3)CC2)c(OC)c1OC [LOMERIZINE] |  |  |  |  | > 100 | > 24.9 | 4.02
